In patent publication EP4810061A1, “DEUTERATED CAMPTOTHECIN COMPOUND, AND PREPARATION AND USE THEREOF” (Shanghai Qilu Pharmaceutical Research and Development …, priority 2023, dated 2025):

How the values were obtained:
[1] = Repeated dose toxicity experiment of payload compounds in rats; assay type: in vivo, SD rats; conditions: for Body weight and food consumption: 0.3 mg/kg and 1.0 mg/kg, 7 consecutive days; for animals showed immediate ataxia after administration / rats died during recovery (of the animals with ataxia): tail vein injection for 7 consecutive days; for animals showed immediate ataxia after administration: main experimental group + TK group
Method: Test sample preparation: The test sample was weighed according to the predetermined weight into a glass vial. First, 1 mL of DMSO was added and mixed until the test sample was dissolved, followed by the addition of 1 mL of Solutol HS-15. After mixing thoroughly, 8 mL of sodium chloride injection was added and vortex-mixed to obtain a clear and transparent solution.
SD rats (purchased from Beijing Vital River) were used as test animals. […] During the acclimation period, one cage-side observation was conducted daily; during the dosing period, all animals were subjected to clinical observations twice daily (morning and afternoon). Reactions in various aspects, including the skin, fur, eyes (sclera), ears, nose, oral cavity, chest, abdomen, urogenital area, limbs, as well as respiration, movement, urination, defecation (including urine and feces color), and behavioral changes, were recorded. Daily weight data of the main test group animals were documented. For animals scheduled for dissection, terminal body weight (fasted) was measured prior to dissection. The food intake of the test animals was also recorded. Table 6-1. Results of repeated dose toxicity experiments of the payload compounds of the present disclosure in rats
At the end of the administration, gross dissection was performed on D8 after the administration.

[2] = In vitro plasma stability of payload compounds; assay type: in vitro ADME, Human; conditions: 5 µM, 37°C
Method: (§1) 398 µL of plasma was taken and preheated to 37°C, then co-incubated for 15 minutes. 2 µL of the sample solution was added to the plasma to prepare a final sample concentration of 5 µM. The above solution was co-incubated at 37°C, and 50 µL aliquots were taken at 0, 15, 30, 60, and 120 minutes, followed by the addition of 450 µL of ice-cold acetonitrile (containing the internal standard). The solution was vortexed for 10 minutes, centrifuged, and the remaining content of the parent substrate was detected by the LC-MS/MS method. For specific results, refer to Table 4-1. Table 4-1. Plasma stability of the payload compounds of the present disclosure

[3] = In vitro plasma stability of payload compounds; assay type: in vitro ADME, CD1 mouse; conditions: 5 µM, 37°C
Method: as §1

Compound	Body weight and food consumption [1]	animals showed immediate ataxia after administration ([1]; 0.3 mpk dose group)	animals showed immediate ataxia after administration ([1]; 1 mpk dose group)	average food consumption ([1]; ♀ rats, at the same dose, versus control (Dxd) group)	Residual content of parent payload at 120 minutes (relative to 0 minutes) Human plasma [2] [%]	Residual content of parent payload at 120 minutes (relative to 0 minutes) CD1 mouse plasma [3] [%]	rats died during recovery (of the animals with ataxia) ([1]; 0.3 mpk dose group) [%]	rats died during recovery (of the animals with ataxia) ([1]; 1 mpk dose group) [%]
[2H]C1([2H])OC(=O)[C@](O)(CC)c2cc3n(c(=O)c21)Cc1c-3nc2cc(F)c(C)c3c2c1[C@@H](NC(=O)CO)CC3 [Compound 2]	At the same dose, the effects of compound 2 and Dxd on rat body weight and food consumption were essentially comparable;	compound 2: 0.3 mpk dose group: 13% (2/16) of animals showed immediate ataxia after administration, followed by gradual recovery;	compound 2: 1 mpk dose group: 25% (4/16) of animals showed immediate ataxia after administration, followed by gradual recovery;	for ♀ rats, at the same dose, the average food consumption of the compound 2 group was higher than that of the control group;	111.04	102.54	–	–
[2H]C1([2H])OC(=O)[C@](O)(CC)c2cc3n(c(=O)c21)Cc1c-3nc2cc(F)c(C)c3c2c1[C@@H](NC(=O)[C@H](O)C1CC1)CC3 [Compound 3]	–	–	–	–	105.54	104.97	–	–
[2H]C1([2H])OC(=O)[C@](O)(CC)c2cc3n(c(=O)c21)Cc1c-3nc2cc(F)c(C)c3c2c1[C@@H](NC(=O)C[C@@H](C)O)CC3 [Compound 5]	–	–	–	–	107.73	96.02	–	–
[2H]C1([2H])OC(=O)[C@](O)(CC)c2cc3n(c(=O)c21)Cc1c-3nc2cc(F)c(C)c3c2c1[C@@H](NC(=O)C[C@H](C)O)CC3 [Compound 6]	–	–	–	–	94.89	105.93	–	–
CC[C@@]1(O)C(=O)OCc2c1cc1n(c2=O)Cc2c-1nc1cc(F)c(C)c3c1c2[C@@H](NC(=O)CO)CC3 [Dxd]	Slow/decreased body weight gain; decreased food consumption;	31%	31%	–	87.57	95.42	40	40
